Assay results published in patent US9089507B2 (priority 2006, dated 2015).
≈ marks a conversion by molar mass, not a printed value. Where two headings read alike, the source gives them in different places.

Columns and labels:
[1] = in vivo; conditions: female, CD-1, mouse, 32 mg/kg
[2] = system: B. anthracis spores; conditions: mouse, in vivo
[3] = system: B. anthracis; assay: microbe, parasite or virus in culture; type: cell-based, Bacillus anthracis
[4] = female, CD-1, mouse, in vivo, 32 mg/kg

CN[C@H](CC(C)C)C(=O)N[C@H]1C(=O)N[C@@H](CC(N)=O)C(=O)N[C@H]2C(=O)N[C@H]3C(=O)N[C@H](C(=O)N[C@H](C(=O)O)c4cc(O)cc(O)c4-c4cc3ccc4O)[C@H](O[C@H]3C[C@](C)(N)[C@@H](O)[C@H](C)O3)c3ccc(c(Cl)c3)Oc3cc2cc(c3O[C@@H]2O[C@H](CO)[C@@H](O)[C@H](O)[C@H]2O[C@H]2C[C@](C)(NCc3ccc(-c4ccc(Cl)cc4)cc3)[C@@H](O)[C@H](C)O2)Oc2ccc(cc2Cl)[C@H]1O [Oritavancin, N-(4-(4-chlorophenyl)benzyl)A82846B]
AUC ([1]; ip): 840 µg·h/mL | Cmax ([1]; ip): 95 µg/mL | AUC ([1]; iv): 950 µg·h/mL | Cmax ([1]; iv): 270 µg/mL | spore/tissue load at the termination of the study [2]: ≤ 5×10^4 CFU/g tissue | MIC90 with polysorbate-80 lower than MIC90 in the absence of polysorbate-80 [3]: 16 fold | MIC90 ([3]; Bacillus anthracis): 0.12 µg/mL (≈ 0.0669 µM) | time-to-peak (Tmax) ([4]; ip): 4 h | time plasma concentration remained above the MIC for the Ames strain ([4]; iv): 24 to 48 h | time-to-peak (Tmax) ([4]; iv): 0.25 h
